Results reported in PubChem BioAssay AID2305 (GlaxoSmithKline (GSK), 2010).

The compounds below were run on P. falciparum 3D7 growth, pLDH absorbance (assay: P. falciparum 3D7 growth inhibition, dose response, strain 3D7 (AID 2305)).
Work on CN(C)CCOc1ccc2c(=O)cc(CCc3cccc(F)c3F)n(CC(=O)N(C)Cc3ccc(-c4ccc(C(F)(F)F)cc4)cc3)c2c1 yielded an IC50 of 1200 nM. NC(N)=NN=Cc1ccc2ccc3ccccc3c2c1 showed an IC50 of 380 nM. COc1ccc2ncc(C)c(CCN3CCC(NCc4ccc5c(n4)NC(=O)CS5)CC3)c2c1 gave an IC50 of 550 nM. COc1cccc(-c2nn(C)c3sc(C(=O)NCCN4CCN(c5ccccc5F)CC4)cc23)c1 showed an IC50 of 950 nM. O=C(Cn1c(=O)cnc2ccccc21)Nc1cccc(C(=O)Nc2cccc(C(F)(F)F)c2)c1 showed an IC50 of 280 nM. Work on COc1ccc(C2C(C(=O)OC3CCCCC3)=C(C)NC3=C2C(=O)CCC3)cc1Br (stereo unspecified) yielded an IC50 of 580 nM. With CCC(CN1C(=O)C(c2ccccc2)(c2ccccc2)N=C1N)c1ccccc1 (stereo unspecified) the IC50 was 140 nM. In the case of Cc1cc(N)c2cc(NC(=O)CCC(=O)Nc3ccc4nc(C)cc(N)c4c3)ccc2n1, the IC50 is reported as 950 nM. Cc1nc(-c2cccc(Nc3nccc(NCC(O)c4ccc(C(F)(F)F)cc4)n3)c2)cs1 (stereo unspecified) was tested, and the IC50 was 510 nM. In the case of CCN1CCC(N(Cc2ccc(-c3ccc(Cl)cc3)cc2)C(=O)Cn2c(CCc3cccc(F)c3F)cc(=O)c3ccccc32)CC1, the IC50 is reported as 700 nM. With CCOc1cc2ccccc2cc1CNCCCCCCNCc1cc2ccccc2cc1OCC the IC50 was 980 nM. COc1ccc(Nc2nccc(N3CCC(NC(=O)Nc4cccc(OC)c4)C3)n2)cc1 (stereo unspecified) gave an IC50 of 420 nM. Work on O=C(/C=C/c1ccc(Cl)c(Cl)c1)NCCCCN1CCCN(C(=O)Nc2ccc(Cl)c(Cl)c2)CC1 yielded an IC50 of 860 nM. With CCc1cc2c(cc1OCCN(C)C)N(C(=O)Nc1ccc(-c3ccncc3)c(Cl)c1)CC2 the IC50 was 840 nM. With COc1ccc(-c2nnc(Sc3ccc(C#N)c([N+](=O)[O-])c3)n2CC(C)C)cc1 the IC50 was 820 nM. CCc1cn2c3c(cc(C(=O)N[C@@H](Cc4ccccc4)[C@H](O)CNC4CCC4)cc13)N(C)S(=O)(=O)CC2 gave an IC50 of 100 nM. For O=C(N[C@@H](CC1CCCCC1)C(=O)NCc1cccc(C(F)(F)F)c1)c1ccc(O)c(-c2ccc(Cl)c(Cl)c2)c1, the IC50 was 220 nM. For CCCCCC(C)N=C(Nc1ccc(C#N)cc1O)Nc1ccccc1Br (stereo unspecified), the IC50 was 750 nM. Compound Cc1ccoc1C(=O)Nc1ccc(-c2cccc(-c3nc4c(C)cccc4[nH]3)c2)cc1 has an IC50 of 730 nM. With CN(C)CCNC(=O)c1ccc2c(c1)ncn2-c1cc(OCc2ccccc2C(F)(F)F)c(C(N)=O)s1 (tested in a mixture with another compound) the IC50 was 810 nM. In the case of Oc1ccc(CCNc2nc(NCc3ccccc3-c3cccc(Cl)c3)nc(N3CCNCC3)n2)cc1, the IC50 is reported as 1280 nM. Work on Cc1cc(NC(=O)Nc2ccc3ncccc3c2)c2ccccc2n1 yielded an IC50 of 960 nM. COc1cc(CNC[C@@H](O)[C@H](Cc2ccccc2)NC(=O)c2cc(C3CCCC3)cc(N3CCCC3=O)c2)cc(OC)c1 showed an IC50 of 220 nM. Compound CC(=O)Nc1nc(C(=O)Nc2cccc(-c3ccc(-c4nc5ccccc5[nH]4)cc3)c2)cs1 has an IC50 of 420 nM. In the case of CC(=O)Nc1ccc(OCCCCN(Cc2ccccc2C(F)(F)F)c2ccc(C#N)c(C(F)(F)F)c2)c(Cl)c1, the IC50 is reported as 980 nM. CC(=NNC(=S)NC(C)(C)C)c1ccccn1 gave an IC50 of 160 nM. For CS(=O)(=O)CCNCc1cccc(-c2ccc3c(Nc4ccc(Oc5ccccc5)cc4)ccnc3c2)c1, the IC50 was 690 nM. In the case of COc1ccc(C=CC(=O)Nc2ccc(N3CCCC3)cc2)cc1, the IC50 is reported as 1280 nM. COc1ccc2nc3cc(Cl)ccc3c(NCc3ccccc3)c2c1 showed an IC50 of 870 nM. For Cc1c(CCC#N)c(NCc2ccccc2)n2c(nc3ccccc32)c1C#N, the IC50 was 880 nM. O=C(N[C@@H](CC1CCCCC1)C(=O)NCCN1CCOCC1)c1ccc(O)c(-c2ccc(Cl)c(Cl)c2)c1 showed an IC50 of 180 nM. With COc1ccc(-c2cccc(NC(=O)c3ccc(C#N)cc3)c2)cc1CN1CCCC1 the IC50 was 700 nM. CCC1CN2CCc3c([nH]c4ccccc34)C2CC1CC1=NCCc2c1[nH]c1ccc(OC)cc21 (stereo unspecified) showed an IC50 of 640 nM. CCN(CC)CCNC(=O)c1ccc(NC(=O)c2oc3c(Cl)cccc3c2C)cc1 gave an IC50 of 700 nM. Work on CC(CC(=O)NCC1(c2ccc(F)cc2Cl)CCOCC1)C(=O)c1ccc(Cl)cc1 (stereo unspecified) yielded an IC50 of 860 nM. Work on Oc1ccccc1CNCC(O)c1cccc(C(F)(F)F)c1 (stereo unspecified) yielded an IC50 of 530 nM. COc1c(Br)cc(Br)cc1C(C)=O showed an IC50 of 990 nM. In the case of O=C(Nc1cccc(C(F)(F)F)c1)NC1CCN(c2ccnc3ccccc23)C1 (stereo unspecified), the IC50 is reported as 290 nM. In the case of Cc1ccc(C)c(NC(=O)Nc2ccc(Nc3nc(C)cc(N4CCOCC4)n3)cc2)c1, the IC50 is reported as 980 nM. Oc1ccc(CCNCCCCNCCc2ccc(Cl)cc2)cc1O showed an IC50 of 840 nM. With O=C(Nc1ccc(-c2ccccc2)cc1)Nc1ccc2c(c1)CCNCC2 the IC50 was 350 nM. For c1ccc(-c2nnc(-c3ccccn3)nc2NC2CCCCC2)cc1, the IC50 was 910 nM. For CN(C)CCCc1cc2c(cc1Cl)CCN2C(=O)Nc1ccc(-c2ccncc2)c2ccccc12, the IC50 was 1180 nM. Work on CN1CCN(CCCN(Cc2csc(-c3ccc(CNCc4ccccc4)cc3)n2)C(=O)Nc2ccc3ccccc3c2)CC1 yielded an IC50 of 1100 nM. Work on CN(C)CCN1CCN(Cc2cccc(-c3csc(-c4nc5ccccc5[nH]4)c3)c2)CC1 yielded an IC50 of 400 nM. CCOC(=O)c1cccc(NC(=O)Nc2cccc(-c3ncc(OCCCN)c4c3nc(-c3nonc3N)n4CC)c2)c1 gave an IC50 of 890 nM. O=S(=O)(c1ccc(OCc2ccc(Cl)cc2)cc1)c1cc2c(cc1OCc1ccccc1)CCN(CC1CC1)CC2 was tested, and the IC50 was 1110 nM. CCOC(=O)c1cc2c(CCN3C(=O)c4ccccc4C3=O)cn(C)c2cc1-c1ccncc1 showed an IC50 of 580 nM. Compound CCn1c(-c2nonc2N)nc2c(-c3cccc(Cl)c3)ncc(OCCCNCc3cnc(C)nc3N)c21 has an IC50 of 1010 nM. In the case of COc1ccc(-n2ccnc2SCC(=O)Nc2cc(C)ccc2C)c(OC)c1, the IC50 is reported as 200 nM. Cc1c(Cl)cccc1NC(=S)NN=Cc1ccccn1 gave an IC50 of 600 nM. COc1ccc2nccc([C@@H](O)CN3[C@@H]4CC[C@H]3CC(NCc3ccc5c(n3)NC(=O)CS5)C4)c2n1 (stereo partly specified) showed an IC50 of 930 nM. For CCCCc1ccc2[nH]cc(C3=CCN(C)CC3)c2c1Br, the IC50 was 630 nM. In the case of O=C(/C=C/c1ccc(Cl)c(Cl)c1)NCCCCCN1CCC(n2c(=O)[nH]c3ccccc32)CC1, the IC50 is reported as 870 nM. With Cc1cc2nc(-c3ccc(C(=O)NCc4ccc(C(C)(C)C)cc4)cc3)[nH]c2cc1C the IC50 was 770 nM. For CN(C)Cc1c(O)ccc2[nH]c(-c3ccc(OC(F)(F)F)cc3)nc12, the IC50 was 730 nM. For O=C(Nc1ccon1)c1cc(-c2cccnc2)nc2ccc(Br)cc12, the IC50 was 740 nM. CS(=O)(=O)N1CC2(CCN(CCC(NC(=O)Nc3ccccc3)c3ccc(Cl)c(Cl)c3)CC2)c2ccccc21 (stereo unspecified) was tested, and the IC50 was 820 nM. For COc1ccccc1-c1csc(C(=O)NC2CCCCN(Cc3ccc(C(C)(C)C)cc3)C2)c1 (stereo unspecified), the IC50 was 1530 nM. In the case of Cc1cc(NC2CCCC2)nc(Nc2ccccc2F)n1, the IC50 is reported as 930 nM. Work on C[C@@H](N)C#Cc1cc2c(Nc3ccc(OCc4cccc(F)c4)c(Cl)c3)ncnc2s1 yielded an IC50 of 1060 nM. Compound CCCc1cc(N2CCC(c3ccccc3)(N3CCCCC3)CC2)nc(Nc2ccc(OC)cc2)n1 has an IC50 of 1090 nM. In the case of COc1cccc(Nc2nc(Nc3cccc(C#N)c3)cc(C(F)(F)F)n2)c1, the IC50 is reported as 830 nM. With CC(=O)Nc1ccc(C(=O)Nc2cccc(-c3cccc(-c4nc5ccc(F)cc5[nH]4)c3)c2)cn1 the IC50 was 130 nM. Compound CCN(CC)CCN(CCN(CC)CC)c1ccc(-c2nc3cc(Cl)c(Cl)cc3[nH]2)cc1 has an IC50 of 780 nM. For O=C(c1cc(C(F)(F)F)cc(C(F)(F)F)c1)N1CC[C@H](CCN2CCC3(CC2)C(=O)NCN3c2ccccc2)C[C@H]1Cc1ccc(Cl)c(Cl)c1, the IC50 was 660 nM. Cc1[nH]c(C)c(-c2ccc(-c3ccc(Cl)cc3)nc2)c(=O)c1Cl showed an IC50 of 110 nM. With CCNC(=O)CCc1cccc(Br)c1 the IC50 was 530 nM. For CC(=O)Nc1cccc(NC(=O)CSc2ccc(-c3nc4ccccc4[nH]3)cn2)c1, the IC50 was 560 nM. COc1cc2nc(N(C)C3CCN(Cc4ccccc4)CC3)nc(N)c2cc1OC showed an IC50 of 330 nM. CNC(=O)COc1ccc(Nc2nnc(-c3ccc(C)c(S(=O)(=O)NCC4CCCO4)c3)c3ccccc23)cc1 (stereo unspecified) gave an IC50 of 930 nM. Compound COC(=O)c1ccc(CC(C)NCC(O)c2cccc(SC(F)(F)F)c2)cc1 (stereo unspecified) has an IC50 of 890 nM. In the case of c1ccc(CNc2nc(NCCc3cnc[nH]3)nc(N3CCCC4CCCCC43)n2)cc1 (stereo unspecified), the IC50 is reported as 830 nM. Work on O=C(Nc1ccc(C2=NC3CCCCC3N2)cc1)Nc1ccc(C2=NC3CCCCC3N2)cc1 (stereo unspecified) yielded an IC50 of 180 nM. With Cc1cccc2[nH]c(-c3ccc(-c4ccc(CN5CCN(CC6CCCN(C)C6)CC5)cc4)cc3)nc12 (stereo unspecified) the IC50 was 140 nM. In the case of COc1ccc(-c2ccc3c(-c4cccc(S(C)(=O)=O)c4)cnc(N)c3c2)cc1, the IC50 is reported as 1330 nM. Compound CC(C)(C)c1cc(C(=O)N2CCN(c3ncnc4ccsc34)CC2)n(Cc2ccccc2)n1 has an IC50 of 910 nM. For CCNc1cc(C(=O)N[C@@H](Cc2ccccc2)[C@H](O)CNCCC(C)c2ccccc2)cc(N2CCCC2=O)c1 (stereo partly specified), the IC50 was 510 nM. Work on COc1ccc2nccc([C@@H](O)CN3CCC(NC(=O)c4ccc(C5(C(F)(F)F)N=N5)cc4)CC3)c2c1 yielded an IC50 of 930 nM. With CCCCCCN1CCC(NCc2ccc(CN(C)C)cc2)CC1 the IC50 was 1270 nM. Work on O=C(Nc1cccc(C2=NCCCN2)c1)Nc1cccc(C2=NCCCN2)c1 yielded an IC50 of 560 nM. Work on COc1ccc(NC(=O)CCNc2ccnc(NCCc3ccc(F)cc3)n2)cc1 yielded an IC50 of 990 nM. Compound Cc1nn(CCOC(=O)NC(NCC2COc3ccccc3O2)C(Cl)(Cl)Cl)cc1[N+](=O)[O-] (stereo unspecified) has an IC50 of 920 nM. In the case of CN(C)C(=O)C(CC(=O)NCc1ccccc1Cl)N(C)C (stereo unspecified) (tested in a mixture with another compound), the IC50 is reported as 900 nM. For Cn1nc(-c2ccc(NC(=O)Nc3cc(C(F)(F)F)ccc3F)c(F)c2)c2cnc(NCCCN3CCOCC3)nc21, the IC50 was 600 nM. Compound CCOc1ccc(-n2nc3c(Cl)nnc(-c4ccccc4)c3c2-c2ccccc2)cc1 has an IC50 of 230 nM. COc1cc(CN2CCC(NC(=O)[C@H](Cc3ccccc3)NC(=O)Nc3ccc(Oc4ccccc4)cc3)C2)ccc1O (stereo partly specified) was tested, and the IC50 was 810 nM. O=C(NCCCCN1CCC(c2ccc3c(c2OCCCO)CCCC3)CC1)c1ccc(-c2ccc(C(F)(F)F)cc2)cc1 showed an IC50 of 720 nM. CN1CCN(CCCN(Cc2ccc(-c3ccc(CNCc4ccc5c(c4)OCO5)cc3)cc2)C(=O)CCC2CCCC2)CC1 showed an IC50 of 950 nM. Cc1ccc(Nc2nc(C)cc(NC3CCN(C)CC3)n2)cc1 showed an IC50 of 500 nM. In the case of N=c1n(CCN2CCCCC2)c2ccccc2n1CC(O)c1cccc(Br)c1 (stereo unspecified), the IC50 is reported as 1140 nM. Cc1cc(N[C@@H](CC(C)C)C(=O)NCc2cccc(F)c2)nc(NCC2CCCCC2)n1 was tested, and the IC50 was 830 nM. Compound Cc1ccc(NC(=O)c2ccc(N3CCC(c4ccccc4C)CC3)nc2)cc1 has an IC50 of 1400 nM. With O=C(Nc1ccccc1F)N(CCCn1ccnc1)Cc1csc(-c2ccc(CNCc3ccccc3)cc2)n1 the IC50 was 840 nM. COc1ccc(CNCc2cccc(-c3ccc(-c4nc5ccccc5[nH]4)cc3)c2)cc1 showed an IC50 of 310 nM. With Cc1cccc(N2C(N)=NC(N)=NC2(C)C)c1C the IC50 was 760 nM.
